Source: patent US8815887B2, “Prophylactic or therapeutic method for Sjogren's syndrome” (Takeda Pharmaceutical Company Limited, priority 2012, dated 2014)

Tests used:
Type in all cases: in vivo
anti-SS-A/Ro antibody = experiment: Anti-SS-A/Ro Ig ELISA of blood of Sjogren's syndrome animal model; conditions: 26-week-old NOD mouse; for onset frequency (positive anti-SS-A/Ro, antibody titer not less than 30 Unit): vehicle 100% onset
Procedure: Blood samples from the 26-week-old NOD mice used in Experimental Example 2 for the measurement of the saliva secretion amount were collected, and ELISA test was carried out for two subsets of anti-SS-A/Ro and anti-SS-B/La found commonly in Sjogren's syndrome.
For quantification of the Total Anti-SSA Ig (IgG+IgA+IgM) in the serum, commercially available Mouse Anti-SSA Total Ig ELISA Kit Cat. No. 5710 (manufactured by ALPHA DIAGNOSTIC INTERNATIONAL) was used. The standard protocol was partly modified. A mouse serum sample was diluted 1/10-fold, the serum of C57BL/6 mouse was added to anti-SSA calibrator solution (Calibrator solution) to give 10% serum.

NOD/ShiLtJ mouse [1] = experiment: Tolerability in the long-term efficacy study (Experimental Example 3); conditions: relatively long term, same dose range (50 and 250 mg/kg)
Procedure: (§1) The saliva secretion amount in 23-week-old NOD mice administered with compound A or compound B was measured in the same manner as in Experimental Example 2.

[2] = test system: CD4+ T cells in the salivary gland; experiment: CD4 mRNA level (CD4+ T cells) in salivary gland tissue, normalized to β-actin; conditions: 26-week-old NOD mouse, compound A treatment group (50 and 250 mg/kg)
Source text: (§2) The salivary gland of the 26-week-old NOD mice used in Experimental Example 2 for the measurement of the saliva secretion amount was removed, the total RNA was recovered from there, and the mRNA levels of CD4, CD8 and CCR9 were normalize with the β-actin expression level as the internal standard.

[3] = Time-course changes in plasma concentration in Sjogren's syndrome animal model; conditions: NOD mouse, oral twice per day 50 and 250 mg/kg, repeated for 19 weeks
Procedure: The compound was orally administered twice per day to 8-week-old NOD mouse under the following conditions, and administration was repeated for 19 weeks.
To the plasma (5 μL) collected from the NOD mouse were added a solvent solution (dimethyl sulfoxide/acetonitrile (2:8), 5 μL), and compound A solution (compound A dissolved in solvent solution, 5 μL) or compound B solution (compound B dissolved in solvent solution, 5 μL) for drawing an analytical curve. An internal standard substance (acetonitrile (115 μL) containing a deuterated form of compound A, or diclofenac sodium, 100 ng/mL)) was added, and the mixture was vigorously stirred. The mixture was centrifuged at 5250 rpm. To the supernatant (30 μL) was added a dilution solvent (60 μL) to give a sample solution (mobile phase A:mobile phase B=9:1 (v/v) was used as a dilution solvent).
The above-mentioned sample solution was injected into an HPLC-MS/MS analysis apparatus, and the obtained peak area was converted to concentration from the analytical curve. The detail of the analysis apparatus is shown below.

[4] = test system: CD8+ T cells in the salivary gland; experiment: CD8 mRNA level (CD8+ T cells) in salivary gland tissue, normalized to β-actin; conditions: 26-week-old NOD mouse
Source text: as §2

NOD/ShiLtJ mouse [5] = experiment: Saliva secretion amount by pilocarpine stimulation in Sjogren's syndrome animal model
Source text: As an animal model for Sjogren's syndrome, most widely used NOD/ShiLtJ mouse (hereinafter sometimes referred to as NOD mouse) was selected since it meets the both conditions of the diagnosis standard: 1) development of dry eye and dry mouth, 2) increase of anti-SS-A/Ro and anti-SS-B/La antibody titer, and is easily available (Tegan N. Lavoie et. al., Journal of Biomedicine and Biotechnology Volume 2011 (2011), Article ID 549107, pp 1-14). 6-Week-old NOD mice were purchased from The Jackson Laboratory (US), after acclimatization for 1-2 weeks, animals before onset of diabetes were divided into 3 groups (maximum 30 mice per group) by randomization into each of the groups based on the body weight measured before the start of the test drug administration and the data of saliva secretion amount by pilocarpine stimulation under ketamine•xylazine anesthesia and subjected to the test. During the test drug treatment, the body weight and the blood glucose level were monitored at least once a week. The blood glucose level of several μL of the blood collected from the tail vein under 1-5% isoflurane anesthesia was measured by a blood glucose level measuring instrument (Accu-Chek Aviva Nano, Roche diagnostics K.K.). The diabetes diagnosis criteria was not less than 250 mg/dL, and one insulin pellet (LinBit, LinShin Canada, Inc.) was subcutaneously transplanted under 1-5% isoflurane anesthesia into the abdomen of the mouse that developed diabetes, and the blood glucose was controlled during the study by monitoring the blood glucose level, and adding or removing the pellet as necessary.
Compound A was orally administered twice daily (minimum ic dosing interval 6 hours) every day except Saturdays and Sundays. The dose of compound A was 50 mg/kg or 250 mg/kg, and 0.2 mL was orally administered as a single dose. The concentration of compound A was appropriately controlled by calculating an average body weight of the group once a week from the body weights of the NOD mice, and adjusting the concentration such that the administration of 0.2 mL results in the administration of each dose. On the other hand, the vehicle group without administration of compound A was orally administered with 0.2 mL of 0.5% methylcellulose solution in the same schedule as above.
Under anesthesia by intraperitoneal administration of a mixture (10 mL/kg) of ketamine (100 mg/kg) and xylazine (10 mg/kg), the saliva secreted in 15 min after subcutaneous administration of pilocarpine (5 mg/kg) was collected with defatted cotton, and the secretion amount was calculated from the defatted cotton weight before and after the measurement.
This measurement was performed twice when the mice reached 21-week-old and 26-week-old.
as §1

CCR9 = CCR9 mRNA expression level in salivary gland tissue, normalized to β-actin; conditions: 26-week-old NOD mouse, 50 and 250 mg/kg
Source text: as §2

anti-SS-B/La antibody = experiment: Anti-SS-B/La IgG ELISA of blood of Sjogren's syndrome animal model; conditions: 26-week-old NOD mouse, 50 and 250 mg/kg
Procedure: Blood samples from the 26-week-old NOD mice used in Experimental Example 2 for the measurement of the saliva secretion amount were collected, and ELISA test was carried out for two subsets of anti-SS-A/Ro and anti-SS-B/La found commonly in Sjogren's syndrome. […]
antigen: SS-B (RayBiotech, Inc., MD-27-0019P) plate: Immuno 96 Microwell Plate (Nunc, 442404) washing: 0.1% Tween 20 containing PBS (hereinafter sometimes to be referred to as PBS/T) substrate: One tablet of o-phenylenediamine dihydrochloride (OPD) (Sigma, P-4809) was dissolved in 50 mM citric acid-phosphoric acid buffer pH 5.0 (Sigma, P-4809) (10 mL), and 4 μL aqueous hydrogen peroxide was added.
SS-A and SS-B were each diluted with 50 mM carbonate buffer pH 9.6 (Sigma, C-3041) to 0.5 μg/mL and 1.0 μg/mL, respectively, and the antigen was added to an ELISA plate at 50 μL/well. After incubation at 4° C. overnight, the plate was washed 3 times with PBS/T, added with 2% BSA in PBS at 200 μL/well, and incubated at room temperature for 1 hr. After washing once with PBS/T, the serum diluted with PBS/T (100- to 500-fold) was added at 50 μL/well, and the mixture was incubated at room temperature for 1-2 hr. […]

[6] = 23-week-old NOD mouse, 50 mg/kg

For CC(C)Oc1ccc(S(=O)(=O)Nc2ccc(Cl)cc2C(=O)c2cc[n+]([O-])cc2)cc1 [compound A, N-{4-chloro-2-[(1-oxidopyridin-4-yl)carbonyl]phenyl}-4-(propan-2-yloxy)benzenesulfonamide], the “onset frequency (positive anti-SS-A/Ro, antibody titer not less than 30 Unit)” value (anti-SS-A/Ro antibody; 50 mg/kg) was “about 50%”, the “share of treatment group with anti-SS-A/Ro antibody suppressed to the control level” value (anti-SS-A/Ro antibody; 250 mg/kg, control C57BL/6 mouse) was “about 70%” and the “onset frequency (positive anti-SS-A/Ro, antibody titer not less than 30 Unit)” value (anti-SS-A/Ro antibody; 250 mg/kg) was “about 30%”. For the same compound, the “anti-SS-A/Ro antibody titer in blood” value (anti-SS-A/Ro antibody; 50 and 250 mg/kg) was “decreased in a dose-dependent manner”, the tolerability (NOD/ShiLtJ mouse [1]) was “clearly superior with compound A to compound B” and the “amount of CD4+ T cells in the salivary gland as compared to the vehicle group” value [2] was “decreased to about half”. For the same compound, the blood exposure [3] was “good blood exposure”, the “metabolism / accumulation in the body” value [3] was “rapidly metabolized without accumulation in the body” and the “amount of CD8+ T cells in the salivary gland as compared to the vehicle group” value ([4]; 50 mg/kg) was “decreased to about half”. For the same compound, the “amount of CD8+ T cells in the salivary gland as compared to the vehicle group” value ([4]; 250 mg/kg) was “about one-third”, the saliva secretion amount (NOD/ShiLtJ mouse [5]; 21-week-old NOD mouse, 50 mg/kg orally twice daily from 8-week-old, vehicle about 8.3) was “about 9.8 mg/15 min/g BW” and the saliva secretion amount (NOD/ShiLtJ mouse [5]; 21-week-old NOD mouse, 250 mg/kg orally twice daily from 8-week-old, vehicle about 8.3) was “about 11.2 mg/15 min/g BW”. For the same compound, the “saliva secretion amount compared to the vehicle group” value (NOD/ShiLtJ mouse [5]; [6]) was “significantly suppressed a decrease in the saliva secretion amount”, the “saliva secretion amount compared to the vehicle group” value (NOD/ShiLtJ mouse [5]; 23-week-old NOD mouse, 250 mg/kg) was “significantly suppressed a decrease in the saliva secretion amount” and the saliva secretion amount (NOD/ShiLtJ mouse [5]; 26-week-old NOD mouse, 50 mg/kg orally twice daily from 8-week-old, vehicle about 4.0) was “about 5.5 mg/15 min/g BW”. The “increase of saliva secretion amount than the vehicle group” value (NOD/ShiLtJ mouse [5]; 26-week-old NOD mouse, 250 mg/kg) was “two-fold increase”, the saliva secretion amount (NOD/ShiLtJ mouse [5]; 26-week-old NOD mouse, 250 mg/kg orally twice daily from 8-week-old, vehicle about 4.0) was “about 8.0 mg/15 min/g BW” and the “effect on decrease in saliva secretion amount (dose dependence)” value (NOD/ShiLtJ mouse [5]; NOD mouse, 50 and 250 mg/kg, 21- and 26-week-old) was “significantly suppressed a decrease in the saliva secretion amount in a dose-dependent manner”. For the same compound, the “mRNA expression level of CCR9 in the salivary gland as compared to the vehicle group” value (CCR9) was “tended to decrease in a dose-dependent manner” and the “anti-SS-B/La antibody titer in blood” value (anti-SS-B/La antibody) was “decreased in a dose-dependent manner”.

In the case of CC(C)(C)c1ccc(S(=O)(=O)Nc2ccc(Cl)cc2C(=O)c2cc[n+]([O-])cc2)cc1 [compound B, N-{4-chloro-2-[(1-oxidopyridin-4-yl)carbonyl]phenyl}-4-(tert-butyl)benzenesulfonamide], the “AUC relative to compound A” value [3] is reported as “about one-tenth that of compound A”, the “metabolism / accumulation in the body” value [3] is reported as “rapidly metabolized without accumulation in the body” and the “saliva secretion amount compared to the vehicle group” value (NOD/ShiLtJ mouse [5]; [6]) is reported as “significantly higher”. The “dose-dependent effect on saliva secretion amount” value (NOD/ShiLtJ mouse [5]; 23-week-old NOD mouse, 50 and 250 mg/kg) was “the dose-dependent effect was not found”.
